Reference: ChEMBL document CHEMBL1127254, “Induction of endonucleolytic DNA fragmentation and apoptosis by the duocarmycins” (Bioorg Med Chem Lett, 1994)
pIC50: −log10 of the molar value.

Assays:
[1] = Mean concentration required for the compound to inhibit tumor activity in 20 different cell lines was determined; assay type: functional
MOLT-4 [2] = experiment: Induced cell death in Molt-4 cell line at a dose of E-10 M after 28 hour of incubation; assay type: functional, Homo sapiens
MOLT-4 [3] = experiment: Induced cell death in Molt-4 cell line at a dose of E-8 M after 3 hour of incubation; assay type: functional, Homo sapiens
MOLT-4 [4] = experiment: Induced cell death in Molt-4 cell line at a dose of E-8 M after 1 hour of incubation; assay type: functional, Homo sapiens
MOLT-4 [5] = experiment: Induced cell death in Molt-4 cell line at a dose of E-9 M after 3 hour of incubation; assay type: functional, Homo sapiens
MOLT-4 [6] = experiment: Induced cell death in Molt-4 cell line at a dose of E-10 M after 8 hour of incubation; assay type: functional, Homo sapiens
MOLT-4 [7] = experiment: Induced cell death in Molt-4 cell line at a dose of E-9 M after 20 hour of incubation; assay type: functional, Homo sapiens
MOLT-4 [8] = experiment: Induced cell death in Molt-4 cell line at a dose of E-10 M after 20 hour of incubation; assay type: functional, Homo sapiens
MOLT-4 [9] = experiment: Induced cell death in Molt-4 cell line at a dose of E-9 M after 1 hour of incubation; assay type: functional, Homo sapiens
MOLT-4 [10] = experiment: Induced cell death in Molt-4 cell line at a dose of E-10 M after 5 hour of incubation; assay type: functional, Homo sapiens
MOLT-4 [11] = experiment: Induced cell death in Molt-4 cell line at a dose of E-8 M after 8 hour of incubation; assay type: functional, Homo sapiens
MOLT-4 [12] = experiment: Induced cell death in Molt-4 cell line at a dose of E-10 M after 1 hour of incubation; assay type: functional, Homo sapiens
MOLT-4 [13] = experiment: Induced cell death in Molt-4 cell line at a dose of E-9 M after 5 hour of incubation; assay type: functional, Homo sapiens
MOLT-4 [14] = experiment: Induced cell death in Molt-4 cell line at a dose of E-8 M after 5 hour of incubation; assay type: functional, Homo sapiens
MOLT-4 [15] = experiment: Induced cell death in Molt-4 cell line at a dose of E-9 M after 8 hour of incubation; assay type: functional, Homo sapiens
MOLT-4 [16] = experiment: Induced cell death in Molt-4 cell line at a dose of E-8 M after 20 hour of incubation; assay type: functional, Homo sapiens
MOLT-4 [17] = experiment: Induced cell death in Molt-4 cell line at a dose of E-10 M after 3 hour of incubation; assay type: functional, Homo sapiens
MOLT-4 [18] = experiment: Induced cell death in Molt-4 cell line at a dose of E-8 M after 28 hour of incubation; assay type: functional, Homo sapiens
MOLT-4 [19] = experiment: Induced cell death in Molt-4 cell line at a dose of E-9 M after 28 hour of incubation; assay type: functional, Homo sapiens

Compound | pIC50 [1] | Viability (MOLT-4 [2]) | Viability (MOLT-4 [3]) | Viability (MOLT-4 [4]) | Viability (MOLT-4 [5]) | Viability (MOLT-4 [6]) | Viability (MOLT-4 [7]) | Viability (MOLT-4 [8]) | Viability (MOLT-4 [9]) | Viability (MOLT-4 [10]) | Viability (MOLT-4 [11]) | Viability (MOLT-4 [12]) | Viability (MOLT-4 [13]) | Viability (MOLT-4 [14]) | Viability (MOLT-4 [15]) | Viability (MOLT-4 [16]) | Viability (MOLT-4 [17]) | Viability (MOLT-4 [18]) | Viability (MOLT-4 [19])
COC(=O)[C@]1(C)Nc2c(O)cc3c(c2C1=O)[C@H](CCl)CN3C(=O)c1cc2cc(OC)c(OC)c(OC)c2[nH]1 | 7.70 | – | – | – | – | – | – | – | – | – | – | – | – | – | – | – | – | – | –
COC(=O)c1cc2c([nH]1)C(=O)C=C1N(C(=O)c3cc4cc(OC)c(OC)c(OC)c4[nH]3)C[C@H]3C[C@]123 [DUOCARMYCIN] | 10.00 | 58% | 92% | 95% | 95% | 65% | 15% | 58% | 95% | 90% | 42% | 95% | 85% | 80% | 52% | 10% | 95% | 10% | 12%
